pIC50: −log10 of the molar value. Where a SMILES comes first, the peptide text is derived from it. [ ]: non-standard residue; d: D form. pY = N[C@@H](Cc1ccc(OP(=O)(O)O)cc1)C(=O)O
Columns and labels:
Shc PTB domain = biological target: T1, Shc PTB domain (Homo sapiens, UniProt P29353); test: Surface plasmon resonance competition: GST-Shc PTB domain binding to immobilized middle T antigen phosphopeptide; conditions: BIAcore, soluble competing phosphopeptide; read-out: IC50, inhibition of binding of the Shc PTB domain to the middle T antigen phosphopeptide
T1 construct: the PTB domain fusion construct comprises amino acids 1-225 of human p52 Shc; made in house; host or cells: E. coli
T1 sequence (P29353 1-225 isoform P29353-2): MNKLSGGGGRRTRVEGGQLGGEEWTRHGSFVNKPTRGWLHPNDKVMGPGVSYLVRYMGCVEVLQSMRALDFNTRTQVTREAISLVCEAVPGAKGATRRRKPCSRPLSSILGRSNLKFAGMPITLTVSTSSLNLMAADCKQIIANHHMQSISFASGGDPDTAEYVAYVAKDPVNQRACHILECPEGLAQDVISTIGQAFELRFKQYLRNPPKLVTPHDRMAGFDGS
Description: Surface plasmon resonance—experiments were done with a BIAcore instrument (Pharmacia). A phosphopeptide corresponding to the NPXY sequence in the polyomavirus middle T antigen (mT) (LSLLSNPTpYSVNSK) was absorbed to the surface of a biosensor chip. Binding of soluble GST-Shc PTB domain fusion protein to the mT peptide was measured in the presence or absence of competing soluble phosphopeptides based on the sequences around Tyr 513 of DDR1b or Tyr 490 of the NGFR (HIIENPQpYFSD) (21).
Experiments were done with a BIAcore instrument (Pharmacia). A phosphopeptide corresponding to the NPXY sequence in the polyomavirus middle T antigen (LSLLSNPTpYSVMRSK) was absorbed to the surface of a biosensor chip. Binding of soluble GST-Shc PTB domain fusion protein to the middle T peptide was measured in presence or absence of competing soluble phosphopeptides based on the sequences around tyrosine 513 of DDR1b (ALLLSNPApYRLLLA) or tyrosine 490 of the NGF receptor (HIIENPQpYFSD).

[1] = biological target: T2, Shc PTB domain binding to DDR1b (Homo sapiens, UniProt P29353); test: GST-Shc PTB pull-down of tyrosine phosphorylated DDR1b from 293 lysates, competition by phosphopeptide; conditions: lysates of transfected, orthovanadate-treated 293 cells
T2 construct: the PTB domain fusion construct comprises amino acids 1-225 of human p52 Shc; made in house; host or cells: GST-Shc PTB: E. coli; DDR1b: lysate of transiently transfected, orthovanadate-treated 293 cells
T2 sequence (P29353 1-225 isoform P29353-2): T1 sequence (P29353 1-225 isoform P29353-2)
Description: The results presented above raise the possibility that the Shc PTB domain binds to phosphorylated Tyr 513, which lies within the motif LLSNPAY in the DDR1b juxtamembrane insert. To test whether phosphorylation of Tyr 513 might form a PTB-binding site, a 14-mer phosphopeptide with the sequence ALLLSNPApYRLLLA was synthesized, corresponding to residues 505-518 of DDR1b. The ability of this phosphopeptide to bind the Shc PTB domain was analysed using a competition assay, in which the capacity of GST-Shc PTB fusion protein to bind tyrosine phosphorylated DDR1b from lysates of transfected 293 cells was measured in the presence of increasing amounts of the Tyr 513 phosphopeptide. […] To quantitate this interaction more precisely, surface plasmon resonance technology was used, in which soluble DDR1b phosphopeptide was employed to inhibit binding of the GST-Shc PTB fusion protein to a polyomavirus middle T antigen phosphopeptide, immobilized on a biosensor chip (21).
FIGS. 2A and 2B. Phosphorylation of Tyr 513 in the MCK10b (DDR1b) juxtamembrane insert forms a Shc PTB-binding site. […] Bound protein was detected by immunoblotting with antibodies to MCK10. […]

MMP-1 = MMP-1 expression in HT 1080 cells (Western blot of conditioned media); type: cell-based, human; conditions: collagen type I 10 μg/ml, or TPA
Description: The full length cDNA of DDR2 was stabilely expressed in HT 1080 cells using a retroviral expression construct (pLXSN). Neomycin resistant clones were tested for DDR2 expression. Parental and DDR2 overexpressing cells were cultivated in serum free medium and stimulated with 10 μg/ml collagen type I for various periods of time. The conditioned medium was 20-fold concentrated and analyzed for the presence of MMP-1 by Western blotting with the monoclonal antibody 41-IE5 (Oncogene Research Products; Cambridge, Mass.).

MAPK = MAPK activation (mobility shift) in T-47D or HT 1080-DDR2 cells; type: cell-based, human; conditions: T-47D or HT 1080 overexpressing DDR2; PDGF or EGF 5 min, collagen type I overnight
Description: T-47D or HT 1080 overexpressing DDR2 cells were stimulated with PDGF or EGF for 5 min, with collagen type I overnight and with a combination of EGF/collagen or PDGF/collagen. […] Furthermore, activation of MAPK by EGF is not influenced by simultaneous activation of DDR receptors.

DDR1b = biological target: T3, DDR1b (Homo sapiens, UniProt Q08345); test: Tyrosine phosphorylation of endogenous DDR1b in carcinoma cells (T-47D; A431), immunoprecipitation and anti-phosphotyrosine blot; type: cell-based; conditions: PDGF or EGF 5 min, collagen type I overnight
T3 construct: endogenous in cells; host or cells: T-47D human mammary carcinoma cells (A431 also named)
T3 sequence (Q08345 19-913): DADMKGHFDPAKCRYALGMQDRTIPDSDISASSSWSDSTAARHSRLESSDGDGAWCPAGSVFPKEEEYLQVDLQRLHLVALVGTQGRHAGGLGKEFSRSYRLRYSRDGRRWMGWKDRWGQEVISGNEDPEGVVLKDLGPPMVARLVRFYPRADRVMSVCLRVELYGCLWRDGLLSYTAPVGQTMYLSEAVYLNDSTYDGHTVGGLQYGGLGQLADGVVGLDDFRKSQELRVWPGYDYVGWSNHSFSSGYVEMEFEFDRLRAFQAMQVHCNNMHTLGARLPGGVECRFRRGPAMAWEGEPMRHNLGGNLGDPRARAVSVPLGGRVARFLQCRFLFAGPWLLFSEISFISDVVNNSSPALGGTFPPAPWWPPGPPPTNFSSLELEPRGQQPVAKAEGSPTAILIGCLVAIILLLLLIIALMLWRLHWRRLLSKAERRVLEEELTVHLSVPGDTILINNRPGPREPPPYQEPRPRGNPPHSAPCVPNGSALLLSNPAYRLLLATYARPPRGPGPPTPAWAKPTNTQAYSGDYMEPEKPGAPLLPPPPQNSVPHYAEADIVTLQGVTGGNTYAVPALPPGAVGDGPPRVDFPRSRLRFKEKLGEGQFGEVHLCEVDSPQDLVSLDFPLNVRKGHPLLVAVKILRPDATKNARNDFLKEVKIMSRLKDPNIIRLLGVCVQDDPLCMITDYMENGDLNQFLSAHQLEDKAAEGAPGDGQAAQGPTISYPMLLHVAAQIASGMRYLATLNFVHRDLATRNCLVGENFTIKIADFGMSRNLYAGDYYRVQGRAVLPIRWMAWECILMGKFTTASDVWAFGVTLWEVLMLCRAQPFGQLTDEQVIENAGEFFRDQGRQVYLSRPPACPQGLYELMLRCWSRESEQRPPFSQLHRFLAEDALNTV
Description: To investigate the effects of collagen on cells that express endogenous DDR tyrosine kinases, the mammary carcinoma cell line T-47D was employed. Previous results have shown that DDR1 is highly expressed in human carcinoma cell lines, in particular, the breast cancer cell lines BT-20, MDA-MB-175 and T-47D (1) (Perez et al., 1996). […] The time course of endogenous DDR1b tyrosine phosphorylation in T-47D cells was even slower than in 293 cells, with maximal activation being achieved only after stimulation for 18 hours.
To further investigate the role of different types of collagen in the activation of DDR1 and DDR2, collagen types I, II, III and V purified from human placenta and collagen type II from bovine tracheal cartilage were obtained. To test their ability to induce receptor tyrosine phosphorylation, 293 cells overexpressing DDR1 or DDR2 were employed. […] The various types of collagen were also tested for their ability to stimulate tyrosine phosphorylation of endogenous DDR1b present in T-47D cells. For this purpose, DDR1b was immunoprecipitated from lysates of stimulated T-47D cells and analyzed by Western blotting with anti-phosphotyrosine antibodies. […] As previously shown, DDR1 tyrosine phosphorylation could also be activated by treating cells with 1 mM orthovanadate, an inhibitor of tyrosine phosphatases. Furthermore, gelatin which contains heat denatured collagen was tested for its capacity to induce DDR1b tyrosine phosphorylation.
Integrins of the type α1β1 and α2β1 have long been known to be receptors for collagen. Therefore, tests were conducted to determine if these integrins are somehow involved in the activation of DDR1b. The mammary carcinoma cell line T-47D, which endogenously expresses the b-isoform of DDR1, was used. Monoclonal antibodies directed against the extracellular domains of integrins can block binding to collagen and therefore signaling of integrins. T-47D cells were treated with antibody A2-IIE10 against α2-integrin and antibody DE9 against β1-integrin (both from Upstate Biotechnology) in the absence or presence of 10 μg/ml collagen type I overnight. DDR1b or Shc were immunoprecipitated from cellular lysates and analyzed by Western blotting with antiphosphotyrosine antibody.
DDR1b and DDR2 were transfected into 293 cells and were stimulated with 10 µg/ml mouse collagen type I for different periods of time. (FIG. 9A and FIG. 9B) Total cellular lysates were probed with antiphosphotyrosine antibody. Maximal activation is seen 90 min after stimulation of DDR1b (FIG. 9A) and DDR2 (FIG. 9B). (FIG. 9C) Human mammary carcinoma T-47D cells were cultivated on 10 cm dishes to confluence and starved in 0.5% serum overnight. Cells were stimulated with collagen type I for various periods of time and lysed. DDR1b was immunoprecipitated from the lysates and analyzed by Western blotting with antiphosphotyrosine antibody. Maximal phosphorylation of DDR1b is seen after stimulation for 18 h. An unidentified, tyrosine phosphorylated protein with an apparent molecular weight of 115 kDa is copurified in the immunoprecipitations. […] Prolonged stimulation with collagen increases the processing of DDR1b in T-47D cells, indicated by an additional 62 kDa band. (FIGS. 9E and 9F) DDR1b was immunoprecipitated from overexpressing 293 cells (E) and T-47D (FIG. 9F) cells and subjected to an in vitro kinase reaction. The incorporation of [^32P]-phosphate is monitored by SDS-PAGE followed by autoradiograpy.

CC(C)C[C@H](NC(=O)[C@H](C)N)C(=O)N[C@@H](CC(C)C)C(=O)N[C@@H](CC(C)C)C(=O)N[C@@H](CO)C(=O)N[C@@H](CC(N)=O)C(=O)N1CCC[C@H]1C(=O)N[C@@H](C)C(=O)N[C@@H](Cc1ccc(OP(=O)(O)O)cc1)C(=O)N[C@@H](CCCNC(=N)N)C(=O)N[C@@H](CC(C)C)C(=O)N[C@@H](CC(C)C)C(=O)N[C@@H](CC(C)C)C(=O)N[C@@H](C)C(=O)O [DDR1b phosphopeptide, ALLLSNPApYRLLLA] (H-ALLLSNPA[pY]RLLLA-OH; N-terminus and C-terminus assumed)
pIC50 (Shc PTB domain): ~6.10
phosphopeptide concentration for full inhibition of Shc PTB binding to DDR1b [1]: 2 µM
phosphopeptide concentration that inhibited binding of the Shc PTB domain to DDR1b [1]: 100 nM

CCCCCCCCCCCCCC(=O)O[C@@H]1[C@@H](C)[C@@]2(O)[C@@H](C=C(CO)C[C@]3(O)C(=O)C(C)=C[C@@H]23)[C@@H]2C(C)(C)[C@]12OC(C)=O [TPA, phorbol 12-myristate 13-acetate]
expression of MMP-1 in HT 1080 cells overexpressing DDR2 (MMP-1; 4 days): induced
expression of MMP-1 in parental HT 1080 cells (MMP-1): induced

PDGF [reference compound]
MAPK activation (MAPK): not
activation of DDR1b in T-47D cells (DDR1b): not
